{SH-C6} = thiol hexyl linker
Target: T1, telomerase (Homo sapiens, UniProt O14746)
T1 construct: showing the effect of TBT oligonucleotide length in HEK293T cell lysates; endogenous in cells; host or cells: HEK293T cell lysate (CHAPS lysis buffer)
Assay: TBT telomerase assay: effect of oligonucleotide length in HEK293T cell lysates
Assay type: biochemical
Settings: luminescence, compared with short (0.5 repeat) and 2.5 repeat versions, FIG. 16
Text: FIG. 16 is a graphical representation showing the effect of TBT oligonucleotide length in HEK293T cell lysates. […]

T1 sequence (O14746 whole entry): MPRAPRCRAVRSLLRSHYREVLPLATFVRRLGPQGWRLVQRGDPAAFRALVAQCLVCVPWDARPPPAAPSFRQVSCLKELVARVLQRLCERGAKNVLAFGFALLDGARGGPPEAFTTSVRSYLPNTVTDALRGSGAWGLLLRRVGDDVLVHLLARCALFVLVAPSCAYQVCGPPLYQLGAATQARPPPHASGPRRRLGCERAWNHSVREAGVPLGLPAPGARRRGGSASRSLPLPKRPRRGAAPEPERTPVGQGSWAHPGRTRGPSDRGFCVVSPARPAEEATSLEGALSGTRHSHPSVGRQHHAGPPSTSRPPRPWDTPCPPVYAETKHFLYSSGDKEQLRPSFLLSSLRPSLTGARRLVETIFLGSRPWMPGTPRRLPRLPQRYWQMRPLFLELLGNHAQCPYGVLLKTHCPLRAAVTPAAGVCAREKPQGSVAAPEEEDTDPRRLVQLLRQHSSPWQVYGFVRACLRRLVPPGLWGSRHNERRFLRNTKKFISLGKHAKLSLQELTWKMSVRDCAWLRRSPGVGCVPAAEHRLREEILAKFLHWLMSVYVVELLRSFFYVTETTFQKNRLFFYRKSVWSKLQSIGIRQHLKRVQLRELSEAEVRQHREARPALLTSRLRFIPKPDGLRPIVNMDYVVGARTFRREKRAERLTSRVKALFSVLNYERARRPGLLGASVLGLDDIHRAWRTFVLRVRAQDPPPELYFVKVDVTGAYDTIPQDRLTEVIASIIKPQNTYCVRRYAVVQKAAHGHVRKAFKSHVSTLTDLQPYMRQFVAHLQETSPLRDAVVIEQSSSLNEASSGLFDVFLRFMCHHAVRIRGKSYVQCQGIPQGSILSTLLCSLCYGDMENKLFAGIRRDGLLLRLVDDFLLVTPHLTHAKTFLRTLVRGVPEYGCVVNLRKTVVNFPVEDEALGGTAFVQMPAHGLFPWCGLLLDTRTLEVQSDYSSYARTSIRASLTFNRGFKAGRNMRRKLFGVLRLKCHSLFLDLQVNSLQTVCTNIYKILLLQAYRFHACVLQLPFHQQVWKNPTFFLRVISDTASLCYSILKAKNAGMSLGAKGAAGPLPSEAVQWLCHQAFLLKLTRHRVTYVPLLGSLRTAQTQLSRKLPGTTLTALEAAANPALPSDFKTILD
T1 sequence (O60832 whole entry partner): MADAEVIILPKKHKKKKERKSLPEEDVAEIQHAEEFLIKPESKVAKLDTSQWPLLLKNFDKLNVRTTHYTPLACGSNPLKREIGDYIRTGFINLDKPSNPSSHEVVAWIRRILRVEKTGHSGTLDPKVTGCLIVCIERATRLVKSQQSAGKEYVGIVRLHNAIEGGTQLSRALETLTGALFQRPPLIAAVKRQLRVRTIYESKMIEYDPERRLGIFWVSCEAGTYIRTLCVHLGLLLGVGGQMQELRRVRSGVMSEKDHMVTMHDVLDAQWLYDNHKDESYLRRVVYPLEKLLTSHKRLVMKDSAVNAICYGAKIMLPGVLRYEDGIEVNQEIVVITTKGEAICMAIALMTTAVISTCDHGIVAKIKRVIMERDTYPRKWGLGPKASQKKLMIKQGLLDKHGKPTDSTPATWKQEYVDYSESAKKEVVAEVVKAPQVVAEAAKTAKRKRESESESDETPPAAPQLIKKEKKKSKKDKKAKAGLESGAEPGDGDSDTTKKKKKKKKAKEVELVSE
T1 sequence (Q9NPE3 whole entry partner): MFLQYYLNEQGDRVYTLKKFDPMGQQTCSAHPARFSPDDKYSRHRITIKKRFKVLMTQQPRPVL
T1 sequence (Q9NX24 whole entry partner): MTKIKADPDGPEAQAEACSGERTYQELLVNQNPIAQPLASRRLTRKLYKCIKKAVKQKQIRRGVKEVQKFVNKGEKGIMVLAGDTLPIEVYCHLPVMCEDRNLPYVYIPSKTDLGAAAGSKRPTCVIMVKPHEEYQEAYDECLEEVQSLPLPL
T1 sequence (Q9NY12 whole entry partner): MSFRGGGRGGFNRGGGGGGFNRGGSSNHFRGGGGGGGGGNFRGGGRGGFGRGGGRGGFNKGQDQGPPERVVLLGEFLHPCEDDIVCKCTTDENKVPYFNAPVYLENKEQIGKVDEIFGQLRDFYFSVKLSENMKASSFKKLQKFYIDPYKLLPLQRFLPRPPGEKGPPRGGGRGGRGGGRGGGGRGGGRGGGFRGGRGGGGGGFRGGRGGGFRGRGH
T1 sequence (Q9BUR4 whole entry partner): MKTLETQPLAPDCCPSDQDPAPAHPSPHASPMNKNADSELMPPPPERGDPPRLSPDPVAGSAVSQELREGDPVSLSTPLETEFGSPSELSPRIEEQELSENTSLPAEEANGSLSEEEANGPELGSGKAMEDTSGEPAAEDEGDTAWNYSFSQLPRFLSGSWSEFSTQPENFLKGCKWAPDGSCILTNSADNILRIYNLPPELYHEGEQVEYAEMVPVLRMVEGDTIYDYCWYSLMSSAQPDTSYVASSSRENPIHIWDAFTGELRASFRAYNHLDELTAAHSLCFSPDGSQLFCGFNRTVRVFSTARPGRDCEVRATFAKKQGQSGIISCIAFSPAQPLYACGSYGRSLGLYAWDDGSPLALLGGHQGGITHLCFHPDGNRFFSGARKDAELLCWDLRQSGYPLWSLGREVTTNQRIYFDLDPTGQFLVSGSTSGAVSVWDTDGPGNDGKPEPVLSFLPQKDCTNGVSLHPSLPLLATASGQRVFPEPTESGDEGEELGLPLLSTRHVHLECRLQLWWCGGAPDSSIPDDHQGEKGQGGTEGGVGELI

Substance: 5′SH-(CH2)6-TTTTTTAATCCGTCGAGCAGAGTTAGGGTTAGGGTTAGG GTTAGGGTTAG (DNA TTTTTTAATCCGTCGAGCAGAGTTAGGGTTAGGGTTAGGGTTAGGGTTAG; DNA, 5' {SH-C6}, backbone and methylation of C not given here; bead-immobilized telomerase substrate oligo; listed as Homo sapiens) [longer version]
- absolute signal relative to the background signal (no telomerase extract): better absolute signal relative to the background signal

From patent US20090226907A1, “ASSAY FOR DETECTION OF TELOMERASE ACTIVITY” (Sienna Cancer Diagnostics Limited, priority 2005, published 2009)
